Results published in patent US20100273804A1, “PYRIDAZINE DERIVATIVES USEFUL AS FUNGICIDES AND FOR THE TREATMENT OF CANCER” (SYNGENTA CROP PROTECTION, INC., priority 2007, published 2010).

How the values were obtained:
[1] = system: Pyrenophora teres (Helminthosporium teres); experiment: Pyrenophora teres (Helminthosporium teres)/barley/preventive (action against net blotch on barley); assay type: in vivo; settings: 96 h, barley plants cv. Regina, preventive spray, assessed 4 days after inoculation, read-out: inhibit fungal infestation
Procedure: Pyrenophora teres (Helminthosporium teres)/Barley/Preventive (Action Against Net Blotch on Barley) 1-week-old barley plants cv. Regina are treated with the formulated test compound in a spray chamber. Two days after application barley plants are inoculated by spraying a spore suspension (2.6×10^4 conidia/ml) on the test plants. After an incubation period of 4 days at 20° C. and 95% r.h. the disease incidence is assessed.

Puccinia recondita = experiment: Puccinia recondita/wheat/preventive (action against brown rust on wheat); assay type: in vivo; settings: 264 h, wheat plants cv. Arina, preventive spray, assessed 11 days after inoculation, read-out: inhibit fungal infestation
Procedure: Puccinia recondita/Wheat/Preventive (Action Against Brown Rust on Wheat) 1 week old wheat plants cv. Arina are treated with the formulated test compound in a spray chamber. One day after application wheat plants are inoculated by spraying a spore suspension ([…] uredospores/ml) on the test plants. After an incubation period of 1 day at 20° C. and 95% r.h. plants are kept for 10 days 20° C./18° C. (day/night) and 60% r.h. in a greenhouse. The disease incidence is assessed 11 days after inoculation.

Uncinula necator = experiment: Uncinula necator/grape/preventive (action against powdery mildew on grape); assay type: in vivo; settings: Erysiphe necator, 168 h, grape seedlings cv. Gutedel, preventive spray, assessed 7 days after inoculation, read-out: inhibit fungal infestation
Procedure: Uncinula necator/Grape/Preventive (Action Against Powdery Mildew on Grape) 5 weeks old grape seedlings cv. Gutedel are treated with the formulated test compound in a spray chamber. One day after application grape plants are inoculated by shaking plants infected with grape powdery mildew above the test plants. After an incubation period of 7 days at 24° C./22° C. and 70% r.h. under a light regime of 14/10 h (light/dark) the disease incidence is assessed.

Alternaria solani = experiment: Alternaria solani/tomato/preventive (action against Alternaria on tomato); assay type: in vivo; settings: 96 h, tomato plants cv. Roter Gnom, preventive spray, assessed 4 days after inoculation, read-out: inhibit fungal infestation
Procedure: Alternaria solani/Tomato/Preventive (Action Against Alternaria on Tomato) 4 weeks old tomato plants cv. Roter Gnom are treated with the formulated test compound in a spray chamber. Two days after application tomato plants are inoculated by spraying a spore suspension on the test plants. After an incubation period of 4 days at 22° C./18° C. and 95% r.h. in a greenhouse the disease incidence is assessed.

Septoria tritici = experiment: Septoria tritici/wheat/preventive (action against Septoria leaf spot on wheat); assay type: in vivo; settings: Zymoseptoria tritici, wheat plants cv. Riband, preventive spray, assessed 16-18 days after inoculation, read-out: inhibits fungal infestation
Procedure: Septoria tritici/Wheat/Preventive (Action Against Septoria Leaf Spot on Wheat) 2 weeks old wheat plants cv. Riband are treated with the formulated test compound in a spray chamber. One day after application wheat plants are inoculated by spraying a spore suspension (10^6 conidia/ml) on the test plants. After an incubation period of 1 day at 22° C./21° C. and 95% r.h. plants are kept at 22° C./21° C. and 70% r.h. in a greenhouse. The disease incidence is assessed 16-18 days after inoculation.

[2] = system: Maqnaporthe qrisea (Pyricularia oryzae); experiment: whole plant or invertebrate; assay type: in vivo; settings: 144 h, read-out: inhibit fungal infestation
Botrytis cinerea = experiment: Botrytis cinerea/tomato/preventive (action against Botrytis on tomato); assay type: in vivo; settings: 72 h, tomato plants cv. Roter Gnom, preventive spray, assessed 3 days after inoculation, read-out: inhibit fungal infestation
Procedure: Botrytis cinerea/tomato/preventive (Action against Botrytis on tomato) 4 weeks old tomato plants cv. Roter Gnom are treated with the formulated test compound in a spray chamber. Two days after application tomato plants are inoculated by spraying a spore suspension on the test plants. After an incubation period of 3 days at 20° C. and 95% r. h. in a greenhouse the disease incidence is assessed.

Structure (SMILES)	inhibition at 200 ppm [1] [%]	inhibition at 200 ppm (Puccinia recondita) [%]	inhibition at 200 ppm (Uncinula necator) [%]	inhibition at 200 ppm (Alternaria solani) [%]	inhibition at 200 ppm (Septoria tritici) [%]	inhibition at 200 ppm [2] [%]	inhibition at 200 ppm (Botrytis cinerea) [%]	melting point [°C]
Cc1nnc(Cl)c(-c2c(F)cc(F)cc2F)c1Cc1ccc(Cl)cc1 [I.k.158, 3-chloro-5-(4-chloro-benzyl)-6-methyl-4-(2,4,6-trifluoro-phenyl)-pyridazine]	≥ 80	≥ 80	≥ 80	≥ 80	≥ 80	≥ 80	≥ 80	
Cc1n[nH]c(=O)c(-c2c(F)cc(F)cc2F)c1Cc1ccc(Cl)cc1 [I.k.157, 5-(4-chloro-benzyl)-6-methyl-4-(2,4,6-trifluoro-phenyl)-2H-pyridazin-3-one]								212 to 215
